In US20240327400A1, “COMPOSITIONS AND METHODS FOR MODULATING HAIR GROWTH” (The Regents of the University Of California, priority 2020, published 2024):

Tested on: Lactate dehydrogenase (LDH) activity
Experiment: LDH activity assay on human skin lysate (Ldh platereader protocol)
Type: biochemical
Conditions: human skin lysate pretreated with benzil prior to incubation with MPC inhibitors; FIG. 7
Protocol: Human skin samples were homogenized with a Benchmark BeadBlaster24R in 500 μl of Pierce RIPA Lysis and Extraction buffer (Thermo Scientific Cat No: 89900), centrifuged at 10,000 g for 15 minutes at 4° C. to remove insoluble material, and the soluble fraction quantified by Pierce BCA assay (Thermo Scientific Cat No: 23225). Lactate dehydrogenase activity was quantified using a Sigma Aldrich Lactate Dehydrogenase Activity Assay Kit (Catalog No: MAK066). Briefly, 10 μg of sample was loaded per well in a 96 well plate along with 20 uM of Pelage compounds and pre-incubated at 37° C. for 30 minutes before addition of Ldh assay master mix. Using a Biotek Synergy HTX multi-mode reader, the plate was incubated at 37° C. and absorbance measurements at 450 nm (A450) were taken every 3 minutes for 30 minutes. The LDH activity of each sample was quantified by calculating the AA450 over time.

In the case of N#C/C(=C\c1cn(-c2ccccc2)c2ccccc12)C(=O)O [UK5099], the “effect on LDH activity after pretreatment with a carboxylesterase inhibitor (benzil)” value is reported as “no effect”.
